In US7521560B2, “2-substituted quinoline compounds and their uses” (Rigel Pharmaceuticals, Inc., priority 2004, dated 2009):

What follows are compounds tested on cultured human mast cells (CHMC) (assay: CHMC low cell density IgE activation: tryptase release assay). Conditions: Homo sapiens, Mast cell, anti-IgE-induced tryptase release, low density CHMC.
Assay type: cell-based
Procedure: Inhibition of degranulation was measured at low density (and could also be measures at high cell density) by quantifying the release of the granule specific factor tryptase. Tryptase was quantified using a fluorogenic substrates as described in its respective examples. Histamine, TNFα, IL-6, IL-13 and LTC4 can be quantified, if desired, using the following commercial ELISA kits: histamine (Immunotech #2015, Beckman Coulter), TNFα (Biosource #KHC3011), IL-6 (Biosource #KMC0061), IL-13 (Biosource #KHC0132) and LTC4 (Cayman Chemical #520211). The protocols for various assays are provided below.
A second phase is performed to convert the expanded CD34-negative progenitor cells into differentiated mucosal mast cells. These mucosal cultured human mast cells (“CHMC”) are derived from CD34+ cells isolated from umbilical cord blood and treated to form a proliferated population of CD34-negative progenitor cells, as described above. To produce the CD34-negative progenitor cells, the resuspension cycle for the culture was the same as that described above, except that the culture was seeded at a density of 425,000 cells/mL and 15% additional media was added on about day four or five without performing a cell count. Also, the cytokine composition of the medium was modified such that it contained SCF (200 ng/mL) and recombinant human IL-6 (200 ng/mL; Peprotech, Catalog No. 200-06 reconstituted to 100 ug/mL in sterile 10 mM acetic acid) (“CM/SCF/IL-6 medium”).
To duplicate 96-well U-bottom plates (Costar 3799) add 65 ul of compound dilutions or control samples that have been prepared in MT [137 mM NaCl, 2.7 mM KCl, 1.8 mM CaCl2, 1.0 mM MgCl2, 5.6 mM Glucose, 20 mM Hepes (pH 7.4), 0.1% Bovine Serum Albumin, (Sigma A4503)] containing 2% MeOH and 1% DMSO. Pellet CHMC cells (980 rpm, 10 min) and resuspend in pre-warmed MT. Add 65 ul of cells to each 96-well plate. Depending on the degranulation activity for each particular CHMC donor, load 1000-1500 cells/well. Mix four times followed by a 1 hr incubation at 37° C. During the 1 hr incubation, prepare 6× anti-IgE solution [rabbit anti-human IgE (1 mg/ml, Bethyl Laboratories A80-109A) diluted 1:167 in MT buffer]. Stimulate cells by adding 25 ul of 6× anti-IgE solution to the appropriate plates. Add 25 ul MT to un-stimulated control wells. Mix twice following addition of the anti-IgE. Incubate at 37° C. for 30 minutes. During the 30 minute incubation, dilute the 20 mM tryptase substrate stock solution [(Z-Ala-Lys-Arg-AMC.2TFA; Enzyme Systems Products, #AMC-246)] 1:2000 in tryptase assay buffer [0.1 M Hepes (pH 7.5), 10% w/v Glycerol, 10 uM Heparin (Sigma H-4898) 0.01% NaN3]. Spin plates at 1000 rpm for 10 min to pellet cells. Transfer 25 ul of supernatant to a 96-well black bottom plate and add 100 ul of freshly diluted tryptase substrate solution to each well. Incubate plates at room temperature for 30 min. Read the […] of the plates at 355 nm/460 nm on a spectrophotometric plate reader.
The results of low density CHMC assays for release of tryptase (Section 6.2.2) are provided for examplary quinoline compounds in TABLE 1, supra. In TABLE 1, a value of “+” indicates an IC50 of 20 μM or less; a value of “++” indicates an IC50 of 10 μM or less; and a value of “+++” indicates an IIC50 of 5 μM or less.

Row | Structure (SMILES) | IC50 [µM]
1 | Clc1ccc2nc(Nc3cc(-c4ccccc4)n[nH]3)ccc2c1 [Compound 1, 6-chloro-2-(3-phenyl-1H-pyrazol-5-ylamino)quinoline] | ≤ 5
2 | Clc1cccc2ccc(Nc3n[nH]c(-c4ccccc4)c3Br)nc12 [Compound 2, 2-(4-bromo-5-phenyl-1H-pyrazol-3-ylamino)-8-chloroquinoline] | ≤ 5
3 | Clc1ccc2nc(Nc3n[nH]c(-c4ccccc4)c3Br)ccc2c1 [Compound 3, 2-(4-bromo-5-phenyl-1H-pyrazol-3-ylamino)-6-chloroquinoline] | ≤ 5
4 | NC(=O)c1[nH]cnc1Nc1ccc2cc(Cl)ccc2n1 [Compound 4, 2-(5-aminocarbonyl-1H-imidazol-4-ylamino)-6-chloroquinoline] | ≤ 5
5 | NC(=O)c1[nH]cnc1Nc1ccc2cccc(Cl)c2n1 [Compound 5, 2-(5-aminocarbonyl-1H-imidazol-4-ylamino)-8-chloroquinoline] | ≤ 5
6 | NC(=O)c1c[nH]nc1Nc1ccc2cccc(Cl)c2n1 [Compound 6, 2-(4-aminocarbonyl-1H-pyrazol-3-ylamino)-8-chloroquinoline] | ≤ 5
7 | Clc1cccc2ccc(Nc3cc(-c4ccccc4)n[nH]3)nc12 [Compound 7, 8-chloro-2-(3-phenyl-1H-pyrazol-5-ylamino)quinoline] | ≤ 5
8 | Clc1cccc2ccc(Nc3cc(-c4cccs4)n[nH]3)nc12 [Compound 8, 8-chloro-2-(3-thiophen-2-yl-1H-pyrazol-5-ylamino)quinoline] | ≤ 5
9 | Clc1ccc2nc(Nc3cc(-c4cccs4)n[nH]3)ccc2c1 [Compound 9, 6-chloro-2-(3-thiophen-2-yl-1H-pyrazol-5-ylamino)quinoline] | ≤ 5
10 | COc1ccc(-c2cc(Nc3ccc4cccc(Cl)c4n3)n[nH]2)cc1 [Compound 10, 8-chloro-2-[5-(4-methoxyphenyl)-1H-pyrazol-3-ylamino]quinoline] | ≤ 5
11 | COc1ccc(-c2cc(Nc3ccc4cc(Cl)ccc4n3)n[nH]2)cc1 [Compound 11, 6-chloro-2-[5-(4-methoxyphenyl)-1H-pyrazol-3-ylamino]quinoline] | ≤ 5
12 | Cc1cc(Nc2ccc3cccc(Cl)c3n2)n[nH]1 [Compound 12, 8-chloro-2-(5-methyl-1H-pyrazol-3-ylamino)quinoline] | ≤ 5
13 | CC(C)(C)c1cc(Nc2ccc3cccc(Cl)c3n2)n[nH]1 [Compound 13, 2-(5-tert-butyl-1H-pyrazol-3-ylamino)-8-chloroquinoline] | ≤ 10
14 | Cc1cc(Nc2nc[nH]c2C(N)=O)nc2ccccc12 [Compound 15, 2-(5-aminocarbonyl-1H-imidazol-4-ylamino)-4-methylquinoline] | ≤ 10
15 | NC(=O)c1c[nH]nc1Nc1ccc2cc(Cl)ccc2n1 [Compound 16, 2-(4-aminocarbonyl-1H-pyrazol-3-ylamino)-6-chloroquinoline] | ≤ 10
16 | CCOC(=O)c1c[nH]nc1Nc1ccc2cccc(Cl)c2n1 [Compound 17, 8-chloro-2-(4-ethoxycarbonyl-1H-pyrazol-3-ylamino)quinoline] | ≤ 10
17 | CNC(=O)c1cc(Nc2nc[nH]c2C(N)=O)nc2ccccc12 [Compound 18, 2-(5-aminocarbonyl-1H-imidazol-4-ylamino)-4-methylaminocarbonylquinoline] | ≤ 10
18 | Clc1cccc2ccc(Nc3cc[nH]n3)nc12 [Compound 19, 8-chloro-2-(1H-pyrazol-3-ylamino)quinoline] | ≤ 20
19 | N#Cc1c[nH]nc1Nc1ccc2cccc(Cl)c2n1 [Compound 20, 8-chloro-2-(4-cyano-1H-pyrazol-3-ylamino)quinoline] | ≤ 20
20 | Oc1cccc2ccc(Nc3nc[nH]c3Cl)nc12 [Compound 21, 2-(5-chloro-1H-imidazol-4-ylamino)-8-hydroxyquinoline] | > 20
21 | NC(=O)c1[nH]cnc1Nc1cc(C(=O)N2CCOCC2)c2ccccc2n1 [Compound 22, 2-(5-aminocarbonyl-1H-imidazol-4-ylamino)-4-(4-morpholinocarbonyl)quinoline] | > 20

Same assay, conditions: Homo sapiens, Mast cell, anti-IgE-induced tryptase release, low density CHMC; stated in text

Row | Structure (SMILES) | IC50 [µM]
22 | Oc1cccc2ccc(Nc3nc[nH]c3Cl)nc12 [Compound 21, 2-(5-chloro-1H-imidazol-4-ylamino)-8-hydroxyquinoline] | > 20
23 | NC(=O)c1[nH]cnc1Nc1cc(C(=O)N2CCOCC2)c2ccccc2n1 [Compound 22, 2-(5-aminocarbonyl-1H-imidazol-4-ylamino)-4-(4-morpholinocarbonyl)quinoline] | > 20

Same assay, conditions: referring to TABLE 1

Row | Structure (SMILES) | activity in "prodrug" form
24 | CCOC(=O)c1c[nH]nc1Nc1ccc2cccc(Cl)c2n1 [Compound 17, 8-chloro-2-(4-ethoxycarbonyl-1H-pyrazol-3-ylamino)quinoline] | active
25 | CNC(=O)c1cc(Nc2nc[nH]c2C(N)=O)nc2ccccc12 [Compound 18, 2-(5-aminocarbonyl-1H-imidazol-4-ylamino)-4-methylaminocarbonylquinoline] | active

What follows are compounds tested on passive cutaneous anaphylaxis (PCA) response (assay: not given). Conditions: 8 mg/kg, i.p., 30 minutes pretreatment time, n=23 experiments.

Row | Structure (SMILES) | inhibition of the PCA response [%+/−4]
26 | CN1CCC(=C2c3ccccc3C=Cc3ccccc32)CC1 [Cyproheptadine, cyproheptadine] | 61

Same assay, conditions: highest dose, 50 mg/kg, i.p., 30 minutes pretreatment time

Row | Structure (SMILES) | inhibition of the PCA response
27 | CN(C)CCOC(c1ccccc1)c1ccccc1 [diphenhydramine] | up to 86%
